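Growth conditions: 96-well plates. Treatment: test compound, 48 hours, 5 concentrations. Analysis: linear interpolation between bracketing concentrations; unreached endpoints set to highest concentration. TGI marks complete inhibition of growth.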
Key:
Assay in all cases: inhibition of tumour cell growth, NCI panel, 48 h
EKVX NSCLC = system: EKVX NSCLC
OVCAR-3 ovarian = system: OVCAR-3 ovarian
SK-MEL-28 melanoma = system: SK-MEL-28 melanoma
NCI-H226 lung = system: NCI-H226 lung
U251 CNS = system: U251 CNS
SW-620 colon = system: SW-620 colon
T-47D breast = system: T-47D breast
MDA-MB-231 breast = system: MDA-MB-231 breast
UACC-257 melanoma = system: UACC-257 melanoma
SK-MEL-5 melanoma = system: SK-MEL-5 melanoma
A549 NSCLC = system: A549 NSCLC
RXF 393 renal = system: RXF 393 renal
MDA-MB-435 = system: MDA-MB-435
NCI-H460 lung = system: NCI-H460 lung
CCRF-CEM leukemia = system: CCRF-CEM leukemia
HOP-92 NSCLC = system: HOP-92 NSCLC
A498 renal = system: A498 renal
SN12C renal = system: SN12C renal
MOLT-4 leukemia = system: MOLT-4 leukemia
NCI-H23 lung = system: NCI-H23 lung
UO-31 renal = system: UO-31 renal
MCF7 breast = system: MCF7 breast
LOX IMVI melanoma = system: LOX IMVI melanoma
IGROV1 ovarian = system: IGROV1 ovarian
BT-549 breast = system: BT-549 breast
M14 melanoma = system: M14 melanoma
SK-OV-3 ovarian = system: SK-OV-3 ovarian
MDA-N = system: MDA-N
OVCAR-8 ovarian = system: OVCAR-8 ovarian
MALME-3M melanoma = system: MALME-3M melanoma
SK-MEL-2 melanoma = system: SK-MEL-2 melanoma
UACC-62 melanoma = system: UACC-62 melanoma
SF-268 CNS = system: SF-268 CNS
SF-295 CNS = system: SF-295 CNS
KM12 colon = system: KM12 colon
HCT-15 colon = system: HCT-15 colon
TK-10 renal = system: TK-10 renal
DU-145 prostate = system: DU-145 prostate
ACHN renal = system: ACHN renal
HOP-62 NSCLC = system: HOP-62 NSCLC
PC-3 prostate = system: PC-3 prostate
SR leukemia = system: SR leukemia
K-562 leukemia = system: K-562 leukemia
SF-539 CNS = system: SF-539 CNS
HCC-2998 colon = system: HCC-2998 colon
786-0 renal = system: 786-0 renal
RPMI-8226 leukemia = system: RPMI-8226 leukemia
HT29 colon = system: HT29 colon
OVCAR-5 ovarian = system: OVCAR-5 ovarian
SNB-19 CNS = system: SNB-19 CNS
NCI/ADR-RES ovarian = system: NCI/ADR-RES ovarian
NCI-H522 lung = system: NCI-H522 lung
SNB-75 CNS = system: SNB-75 CNS
COLO 205 colon = system: COLO 205 colon
CAKI-1 renal = system: CAKI-1 renal
HL-60(TB) leukemia = system: HL-60(TB) leukemia
HS 578T breast = system: HS 578T breast
HCT-116 colon = system: HCT-116 colon

C=CCC(SC)C1=C(C)C(=O)c2ccccc21 (centres undefined)
TGI (EKVX NSCLC): > 10 µM
TGI (OVCAR-3 ovarian): > 10 µM
TGI (SK-MEL-28 melanoma): > 10 µM
TGI (NCI-H226 lung): > 10 µM
TGI (U251 CNS): > 10 µM
TGI (SW-620 colon): > 10 µM
TGI (T-47D breast): > 10 µM
TGI (MDA-MB-231 breast): > 10 µM
TGI (UACC-257 melanoma): > 10 µM
TGI (SK-MEL-5 melanoma): > 10 µM
TGI (A549 NSCLC): > 10 µM
TGI (RXF 393 renal): > 10 µM
TGI (MDA-MB-435): > 10 µM
TGI (NCI-H460 lung): > 10 µM
TGI (CCRF-CEM leukemia): > 10 µM
TGI (HOP-92 NSCLC): > 10 µM
TGI (A498 renal): > 10 µM
TGI (SN12C renal): > 10 µM
TGI (MOLT-4 leukemia): > 10 µM
TGI (NCI-H23 lung): > 10 µM
TGI (UO-31 renal): > 10 µM
TGI (MCF7 breast): > 10 µM
TGI (LOX IMVI melanoma): > 10 µM
TGI (IGROV1 ovarian): > 10 µM
TGI (BT-549 breast): > 10 µM
TGI (M14 melanoma): > 10 µM
TGI (SK-OV-3 ovarian): > 10 µM
TGI (MDA-N): > 10 µM
TGI (OVCAR-8 ovarian): > 10 µM
TGI (MALME-3M melanoma): > 10 µM
TGI (SK-MEL-2 melanoma): > 10 µM
TGI (UACC-62 melanoma): > 10 µM
TGI (SF-268 CNS): > 10 µM
TGI (SF-295 CNS): > 10 µM
TGI (KM12 colon): > 10 µM
TGI (HCT-15 colon): > 10 µM
TGI (TK-10 renal): > 10 µM
TGI (DU-145 prostate): > 10 µM
TGI (ACHN renal): > 10 µM
TGI (HOP-62 NSCLC): > 10 µM
TGI (PC-3 prostate): > 10 µM
TGI (SR leukemia): > 10 µM
TGI (K-562 leukemia): > 10 µM
TGI (SF-539 CNS): > 10 µM
TGI (HCC-2998 colon): > 10 µM
TGI (786-0 renal): > 10 µM
TGI (RPMI-8226 leukemia): > 10 µM
TGI (HT29 colon): > 10 µM
TGI (OVCAR-5 ovarian): > 10 µM
TGI (SNB-19 CNS): > 10 µM

OC(c1ccccc1)(c1cccnc1)C(O)(c1ccccc1)c1cccnc1 (centres undefined)
TGI (EKVX NSCLC): > 100 µM
TGI (NCI-H226 lung): > 100 µM
TGI (U251 CNS): > 100 µM
TGI (SW-620 colon): > 100 µM
TGI (T-47D breast): > 100 µM
TGI (MDA-MB-231 breast): > 100 µM
TGI (UACC-257 melanoma): > 100 µM
TGI (SK-MEL-5 melanoma): > 100 µM
TGI (A549 NSCLC): > 100 µM
TGI (NCI/ADR-RES ovarian): > 100 µM
TGI (RXF 393 renal): > 100 µM
TGI (MDA-MB-435): > 100 µM
TGI (NCI-H460 lung): > 100 µM
TGI (CCRF-CEM leukemia): > 100 µM
TGI (HOP-92 NSCLC): > 100 µM
TGI (SN12C renal): > 100 µM
TGI (NCI-H23 lung): > 100 µM
TGI (UO-31 renal): > 100 µM
TGI (MCF7 breast): > 100 µM
TGI (IGROV1 ovarian): > 100 µM
TGI (BT-549 breast): > 100 µM
TGI (M14 melanoma): > 100 µM
TGI (SK-OV-3 ovarian): > 100 µM
TGI (MDA-N): > 100 µM
TGI (OVCAR-8 ovarian): > 100 µM
TGI (MALME-3M melanoma): > 100 µM
TGI (SK-MEL-2 melanoma): > 100 µM
TGI (NCI-H522 lung): > 100 µM
TGI (UACC-62 melanoma): > 100 µM
TGI (SF-268 CNS): > 100 µM
TGI (SNB-75 CNS): > 100 µM
TGI (SF-295 CNS): > 100 µM
TGI (COLO 205 colon): > 100 µM
TGI (KM12 colon): > 100 µM
TGI (HCT-15 colon): > 100 µM
TGI (TK-10 renal): > 100 µM
TGI (DU-145 prostate): > 100 µM
TGI (ACHN renal): > 100 µM
TGI (CAKI-1 renal): > 100 µM
TGI (PC-3 prostate): > 100 µM
TGI (HL-60(TB) leukemia): > 100 µM
TGI (HS 578T breast): > 100 µM
TGI (SF-539 CNS): > 100 µM
TGI (786-0 renal): > 100 µM
TGI (RPMI-8226 leukemia): > 100 µM
TGI (HT29 colon): > 100 µM
TGI (OVCAR-5 ovarian): > 100 µM
TGI (SNB-19 CNS): > 100 µM
TGI (HCT-116 colon): > 100 µM

Source: PubChem BioAssay (NCI)
